Here are results for five compounds from US4788200A, “Method and composition for treating arteriosclerosis” (MECT Corporation, priority 1986, dated 1988).

The test system of one data set is blood platelets. As to the kind of experiment: Anticoagulating function for inhibiting coagulation of blood platelets (aggregometer, PRP, arachidonic acid). Type of data set: cell-based, rabbit (White Japanese native species). The note with it: for Response (inhibition of coagulation of blood platelets): in vitro, arachidonic acid 50 mcg/ml, rabbit PRP, 37° C., 2 minutes. The protocol: White Japanese native species male rabbits each having a body weight of from 2.5 to 4.0 kg were used. The state of health of the rabbits was checked by visual examination for such as diarrhea and scabies in the ears, and the number of blood platelets and the hematocrit value of the individual rabbits were determined using the blood taken from the auricular vein of the individual rabbits. Rabbits each having a number of blood platelets of from 30×10^4 to 50×10^4 […] and a hematocrit value of from 30 to 40% were selected and the thus selected rabbits were fed for a pre-breeding period of one week, and then the number of blood platelets and the hematocrit value of the thus bred rabbits were determined again.
Using an injection tube treated with silicone, blood was taken from the auricular artery so that the ratio of blood to a 3.8% sodium citrate solution was 9 to 1 by volume, and the content of the tube was subjected to centrifugal separation at 100 to 140 g for 10 minutes. The supernatant was separated as platelet rich plasma (PRP), and the lower phase was further subjected to centrifugal separation at 450 g or 300 g for 10 minutes to obtain a platelet poor plasma (PPP). After subjecting the PRP to centrifugal separation at 800 g for 10 minutes, precipitated blood platelets were rinsed one time with a 5 m MEDTA deprived of Ca^2+ and MG^2+ and Hepes-Tyrode buffer (pH 7.4), and then suspended in Hepes-Tyrode buffer (pH 7.4) to obtain rinsed blood platelets. In the coagulation experiment, the number of blood platelets in PRP was directly counted by the Brecher-Cronkite method to control the same within the range of from 50×10^4 to 70×10^4 /mm^3.
Using an aggregometer, PRP was added with each of specimen drugs, followed by incubation at 37° C. for a predetermined time period (2 minutes), and an aggregation provoker (arachidonic acid, 50 mcg/ml) was added and then subjected to measurement.
The control drug used was Aspirin.

A further data set deals with metastasis of cancer. The note with it: experiments using animals; cited from earlier work.
For data set [1], the system named is cholesterol content of the blood serum. As to the kind of experiment: Effect against hyperlipidemia (Demonstration 1): cholesterol content of blood serum. Type of data set: in vivo, mice. The note with it: for Reduction Rate of Cholesterol in Blood Serum: mice, oral. The protocol: (§1) Six mice were bred with high cholesterol-cholic acid feeds for 7 days so as to induce hyperlipidemia; one half of the total dose of each compound (I) as set forth in Table 1 was orally administered at the sixth day and the other half was orally administered at the seventh day. After starving the mice for one night, the cholesterol content of the blood serum of the respective mice was determined. It was judged that the tested compound had the desired activity (of reducing fat content of blood) when the cholesterol content of the blood serum was decreased by 15% or more as compared to that of the mice of the control group.

In data set [2] the test system is lipoproteins precipitated by heparin (corresponding to the fractions of LDL and VLDL). Nature of the data set: Effect against hyperlipidemia (Demonstration 2): lipoproteins precipitated by heparin (HPL, LDL and VLDL fractions) in blood serum. Type of data set: in vivo, mice. The note with it: for Decrease of HPL / HPL/Cholesterol ratio: mice, oral; for HPL/Cholesterol ratio: criterion not more than 0.92. How it is done: as §1, with “group. Similar experiments were conducted as in Example 2, and it was judged that the tested compound had the desired activity (of reducing fat content in blood) when the content of lipoproteins precipitated by heparin (corresponding to the fractions of LDL and VLDL) in the blood serum of the tested group was decreased by 20% or more as compared to that of the mice of control group. Decrease of atheromic β-LDL or increase of HDL could be estimated when the ratio of lipoproteins precipitated by heparin to cholesterol (HPL/cholesterol) was not more than 0.92.” for “group.”

The nature of the next data set: Test on acute toxicity. Type of data set: in vivo, mice. The note with it: for acute toxicity, changes observed: mice. How it is done:
The compound (I) was administered to mice in an amount of 300 mg/kg orally or abdominally.

For `CC(=O)Oc1ccccc1C(=O)O` [Aspirin, reference compound], in the data set on blood platelets (2.5 γ (μg/ml)), the “Response (inhibition of coagulation of blood platelets)” value was 100. Further, in the data set with metastasis of cancer, the “effect of inhibiting metastasis of cancer” value is “have the effect of inhibiting metastasis of cancer”.
As for `COc1ccc(-c2nc3sc4ccccc4n3c(=O)c2-c2ccccc2)cc1` [Compound (I), 2-(p-methoxyphenyl)-3-phenylpyrimido[2,1-b]benzothiazole-4(4H)-one], the “pharmaceutical efficacy relative to control agent D-thyroxine” value in data set [1] (from Table 1, fraction of D-thyroxine efficacy) is recorded as “about 2/5”. Moreover, the results for the “Reduction Rate of Cholesterol in Blood Serum” value in data set [1] (10 mg/kg) and in data set [1] (25 mg/kg) were 11% and 16%, respectively. Also, the “pharmaceutical efficacy relative to control agent D-thiroxicine” value in data set [2] (from Table 2, fraction of D-thiroxicine efficacy) was “about 2/5”. In addition, the “Decrease of HPL” value in data set [2] (10 mg/kg) was determined as 17%; in data set [2] (25 mg/kg) it was 23%. Besides, in data set [2] (25 mg/kg), the HPL/Cholesterol ratio is 0.92. In addition, in the data set with blood platelets (from Table 3), the “efficacy relative to control drug Aspirin” value worked out at 2.5 times. For the same compound, the “Response (inhibition of coagulation of blood platelets)” value in the data set with blood platelets (1 γ (μg/ml)) stood at 100. The “acute toxicity, changes observed” value is “No changes were observed” in “Test on acute toxicity” (abdominal, 200 mg/kg) and “No changes were observed” in the data set “Test on acute toxicity” (oral, 300 mg/kg). Moreover, in “Test on acute toxicity” (mouse, in vivo, 100 mg/kg), the “toxicity on successive administration, changes observed” value is on record as “no substantial change was observed”.
With `N[C@H](Cc1cc(I)c(Oc2cc(I)c(O)c(I)c2)c(I)c1)C(=O)O` [D-thyroxine, reference compound], in data set [1] (10 mg/kg), the “Reduction Rate of Cholesterol in Blood Serum” value came to 30%. For the same compound, in data set [2] (10 mg/kg), the “Decrease of HPL” value turned out to be 35% and the HPL/Cholesterol ratio is reported as 0.93.
For `OCCN(CCO)c1nc(N2CCCCC2)c2nc(N(CCO)CCO)nc(N3CCCCC3)c2n1` [dipyridamol], the “effect of inhibiting metastasis of cancer” value in the data set with metastasis of cancer is listed as “have the effect of inhibiting metastasis of cancer”.
Turning to `Clc1ccccc1CN1CCc2sccc2C1` [ticlopidine], the “effect of inhibiting metastasis of cancer” value with metastasis of cancer is recorded as “have the effect of inhibiting metastasis of cancer”.
